# No end group written: not given here.
# What was measured:
# [1] = test system: POMC neurons; test: Whole cell recordings from fluorescent POMC-EGFP neurons in ARC slices (Example 2); format: cell-based, mouse
# [2] = 1-hour food intake after IP GLP-1 with intra-arcuate exendin 9-39 in non-fasted rats; format: in vivo, rat; conditions: GLP-1 25 nmol/kg, exendin 9-39 20 nmoles/kg, FIG. 11
# Method: GLP-1 i.e. GLP-1 (7-36) amide (25 nmol/kg) or saline (control) was administered parenterally to non-fasted rats prior to the onset of the dark phase. Exendin 9-39 (20 nmoles/kg) or saline (control) injected into the arcuate nucleus of non-fasted rats. Food intake one hour later was measured.
# [3] = Intracerebroventricular GLP-1 in rats; format: in vivo, rat
# Source text: This effect is blocked by the specific GLP-1 receptor antagonist, exendin 9-39. GLP-1 receptors are found in the brainstem, arcuate nucleus and PVN. Following ICV GLP-1 administration, c-fos is expressed in the arcuate nucleus and PVN.
# [4] = Co-administration of PYY3-36 and GLP-1 by intravenous infusion in humans, free buffet meal; format: in vivo, human
# Source text: 10 healthy volunteers (4 men and 6 women) having a mean age of 24.7 (±0.8) years and a mean BMI of 22.7 (±0.6) kg/m^2 were recruited. The volunteers were asked to fast and to drink only water from 9 pm on the night preceding all study days. Each volunteer attended for four study days. The volunteers arrived at 9.30 am and the venflons were inserted.
# The study was double blinded. GLP-1 is i.e. GLP-1 (7-36) amide
# [5] = test system: non-fluorescent ARC neurons; test: Recordings from adjacent non-fluorescent ARC neurons; format: cell-based, mouse; conditions: 13 cells tested
substance,measurement,setting,value
CTAP,effect on the current induced by Met-Enk in POMC cells,"[1]; CTAP 1 μM, Met-Enk 30 μM, n=3",completely prevented
neuropeptide Y [NPY],"hyperpolarization of POMC neurons, average",[1]; n=3,9±6 mV
GLP-1 (7-36) amide (HAEGTFTSDVSSYLEGGAAKEFIAWLVKGR-NH2),effect of IP GLP-1 on 1-hour food intake with exendin 9-39 in the arcuate nucleus,[2],not influenced by the presence of concomitant exendin 9-39
same,food intake after ICV administration,[3],potently inhibits food intake
same,"Food intake from free buffet meal, mean","[4]; IV infusion 0.4 pmol/kg/min for 120 minutes (90 minutes pre-meal), 10 volunteers, saline 997",950 kcal
same,% reduction from saline,"[4]; IV infusion 0.4 pmol/kg/min for 120 minutes, free buffet meal",5%
D-Trp^8-γMSH,increase in frequency of GABAergic IPSCs in POMC neurons,"[1]; 7 nM, 3 of 4 POMC neurons",280±90%
same,hyperpolarization of POMC neurons,"[1]; 7 nM, 9 of 15 POMC neurons",−5.5±2.4 mV
"leptin: leptin, hormone applied to POMC cells in slice preparations",decrease in frequency of GABAergic IPSCs in POMC cells,"[1]; 100 nM, in 5 out of 15 cells",25%
same,"depolarization of POMC cells, mean±SEM","[1]; 100 nM, n=45",9.7±1.2 mV
same,time to depolarization of POMC cells,[1]; 0.1-100 nM,2 to 10 min
same,depolarization of POMC cells,"[1]; 0.1-100 nM, 72 of 77 POMC cells",3-30 mV
same,effect on membrane potential of non-fluorescent ARC cells,[5],"had no effect on 5 of 13 adjacent non-fluorescent cells tested (FIG. 3e), while it hyperpolarized 5 (FIG. 3f) and depolarized 3 other non-POMC neurons"
exendin 9-39,effect on inhibition of food intake by ICV GLP-1,[3],blocked
met-enkephalin,time to hyperpolarization of POMC cells,[1]; 30 μM,35 to 40 s
same,hyperpolarization of the membrane potential of POMC cells,"[1]; 30 μM, n=10, reversible",10-20 mV
